Consider six compounds from ChEMBL document CHEMBL1145293, “Synthesis and SAR of GlyT1 inhibitors derived from a series of N-((4-(morpholine-4-carbonyl)-1-(propylsulfonyl)piperidin-4-yl)methyl)benzamides” (Bioorg Med Chem Lett, 2006).

For assay [1], the target named is T1, Sodium- and chloride-dependent glycine transporter 1 (Mus musculus, UniProt P28571).
T1 sequence (P28571 whole entry): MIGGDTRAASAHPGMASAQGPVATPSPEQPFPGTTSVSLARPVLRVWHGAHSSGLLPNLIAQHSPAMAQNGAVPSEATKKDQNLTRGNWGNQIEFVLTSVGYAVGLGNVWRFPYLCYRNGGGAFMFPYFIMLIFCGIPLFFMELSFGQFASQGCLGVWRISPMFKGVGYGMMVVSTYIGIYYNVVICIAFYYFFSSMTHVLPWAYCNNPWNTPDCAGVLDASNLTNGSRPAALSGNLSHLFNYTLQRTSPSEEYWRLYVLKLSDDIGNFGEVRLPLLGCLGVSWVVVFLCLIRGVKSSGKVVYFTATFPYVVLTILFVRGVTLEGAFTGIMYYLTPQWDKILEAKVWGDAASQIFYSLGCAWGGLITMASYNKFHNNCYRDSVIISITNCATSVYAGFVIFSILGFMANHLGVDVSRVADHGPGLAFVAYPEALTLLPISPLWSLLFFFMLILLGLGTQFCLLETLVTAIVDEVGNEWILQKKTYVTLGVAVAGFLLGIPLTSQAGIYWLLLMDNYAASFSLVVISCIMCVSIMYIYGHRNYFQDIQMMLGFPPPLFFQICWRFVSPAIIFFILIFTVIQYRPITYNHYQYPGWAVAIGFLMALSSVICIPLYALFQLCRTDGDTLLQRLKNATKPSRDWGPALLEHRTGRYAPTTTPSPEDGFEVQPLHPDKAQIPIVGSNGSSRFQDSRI
The experiment in a line: Inhibition of mouse GlyT1.

Assay [2] deals with T2, Sodium- and chloride-dependent glycine transporter 2 (Homo sapiens, UniProt Q9Y345).
T2 sequence (Q9Y345 whole entry): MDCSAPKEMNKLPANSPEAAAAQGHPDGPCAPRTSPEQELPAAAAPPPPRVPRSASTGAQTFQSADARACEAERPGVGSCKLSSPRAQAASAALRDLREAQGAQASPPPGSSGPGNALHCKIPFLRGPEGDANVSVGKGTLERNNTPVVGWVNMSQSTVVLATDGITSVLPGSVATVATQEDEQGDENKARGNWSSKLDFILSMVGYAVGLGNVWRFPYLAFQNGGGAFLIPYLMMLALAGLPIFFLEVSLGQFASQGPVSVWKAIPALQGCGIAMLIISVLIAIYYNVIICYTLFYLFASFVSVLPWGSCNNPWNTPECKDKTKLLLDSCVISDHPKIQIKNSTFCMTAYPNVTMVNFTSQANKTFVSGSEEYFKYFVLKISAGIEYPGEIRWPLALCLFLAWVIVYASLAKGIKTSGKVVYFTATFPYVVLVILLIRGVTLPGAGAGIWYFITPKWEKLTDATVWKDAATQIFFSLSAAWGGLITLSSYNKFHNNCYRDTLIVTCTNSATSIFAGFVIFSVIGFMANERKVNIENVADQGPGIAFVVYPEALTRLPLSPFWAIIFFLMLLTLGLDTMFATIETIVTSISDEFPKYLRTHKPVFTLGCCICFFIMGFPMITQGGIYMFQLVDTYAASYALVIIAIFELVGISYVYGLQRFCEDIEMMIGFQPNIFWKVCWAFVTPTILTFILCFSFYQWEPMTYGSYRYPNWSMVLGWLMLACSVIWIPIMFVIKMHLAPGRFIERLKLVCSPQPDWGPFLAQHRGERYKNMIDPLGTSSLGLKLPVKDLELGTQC
In words: Inhibition of human GlyT2.

With `CCCS(=O)(=O)N1CCC(CNC(=O)c2ccccc2Cl)(C(=O)N2CCOCC2)CC1`, the IC50 (usually the concentration at which inhibition is half-maximal) in assay [1] was 95.3 nM; in assay [2], > 30000 nM.

For the compound `CCCS(=O)(=O)N1CCC(CNC(=O)c2c(F)ccc(Cl)c2F)(C(=O)N2CCOCC2)CC1`, the IC50 in assay [1] was 42.8 nM; in assay [2] it was > 30000 nM.

Regarding `CCCS(=O)(=O)N1CCC(CNC(=O)c2ccc(F)cc2Cl)(C(=O)N2CCOCC2)CC1`, the IC50 in assay [1] is 28.5 nM; in assay [2], > 30000 nM.

Take `CCCS(=O)(=O)N1CCC(CNC(=O)c2cc(F)c(Cl)cc2Cl)(C(=O)N2CCOCC2)CC1`: the 50% inhibitory concentration (IC50) in assay [1] is 19.4 nM; in assay [2], > 30000 nM.

On to `CCCS(=O)(=O)N1CCC(CNC(=O)c2c(F)cccc2Cl)(C(=O)N2CCOCC2)CC1`, for which the IC50 in assay [1] was 57.3 nM; in assay [2], > 30000 nM.

Turning to `CCCS(=O)(=O)N1CCC(CNC(=O)c2ccc(Cl)cc2Cl)(C(=O)N2CCOCC2)CC1`, the figures for the IC50 in assay [1] and in assay [2] were 7.6 nM and > 30000 nM, respectively.
